Here are results for four compounds from US20220153782A1, “COMPOUNDS, COMPOSITIONS AND METHODS FOR TREATING A NEUROLOGICAL CONDITION” (MEMORYPLUS LTD., priority 2019, published 2022).

“Also recorded” adds a separate entry of the source. Where a SMILES comes first, the peptide text is derived from it. [ ]: non-standard residue; d: D form. The star is where a group is joined. ξ: configuration not given here. Myristoyl = CCCCCCCCCCCCCC(=O)*; dThr(3ξ) = CC(O)[C@@H](N)C(=O)O; Lauroyl = CCCCCCCCCCCC(=O)*; ξIle = CC[C@H](C)C(N)C(=O)O

The nature of data set [1]: Brain stability (brain homogenate). It counts as in vitro ADME, mouse. The following applies: for brain stability (comparative): longer half-lives; for half-life: mouse, brain homogenate. From the text:
(§1) N, 3 independent experiments.

The next data set in a line: in vitro. To be noted: human; for Papp at 200 μM: BBB permeability; for Papp: Papp0-4 h experiment 2. As to the method:
(§2) The in vitro permeability across a human 2D blood-brain Transwell model (hCMEC/D3 and human astrocytes SC-1800) was tested and enabled the calculation of the apparent permeability coefficient (Papp) for all peptides.

Data set [2] relates to in vitro 2D human BBB model (hCMEC/D3 and human astrocytes SC-1800). Nature of the data set: in vitro. As to the method:
as §2

For another data set, the system named is APP/PS1 mice. Kind of data set: Contextual fear conditioning, APP/PS1 mice. It counts as in vivo, mouse. Here is the method: Use of peptides in vivo with osmotic pumps. APP/PS1 (a mouse model of Alzheimer's disease) and WT mice were anesthetized with isofluorane, and i.c.v. delivery cannulas (brain alzet kit III) were implanted with a stereotaxic frame at the following coordinates according to the bregma: AP, −0.5 mm; ML, 1 mm; and DV, −2.2 mm. Osmotic minipumps (Alzet; model #1004) were filled with the peptides (Dodecanoyl-[…] (conjugate of peptide SEQ ID 2) or Dodecanoyl-[…] (conjugate of peptide SEQ ID 1), 10 μM peptide in 2 mM in cyclodextrin) or with vehicle (cyclodextrin), and equilibrated in 0.9% NaCl at 37° C. for 48 hr. They were attached to the i.c.v. cannula tubing and subcutaneously implanted at the back. After 21 days, behavioral testing was started. Animal manipulation and data analysis were carried out blind with respect to genotype and treatment.
Fear conditioning. In this test, mice form an association between a certain context (an experimental cage/tone) and an aversive event (a foot shock) that takes place in that context. […] Training and testing took place in a rodent observation cage (30×37×25 cm) that was placed in a sound attenuating chamber. In the training (conditioning), the mouse was exposed to the conditioning context (180 sec) followed by a tone (CS, 20 sec, 2 kHz, 85 dB). After termination of the tone, a foot shock (US, 0.75 mA, 2 sec) was delivered through a stainless-steel grid floor. Mice received three foot shocks with an intertrial interval of 60 s. The mouse was removed from the fear conditioning box 30 sec after shock termination and returned to their home cages. Testing: In the contextual fear conditioning version, mice were placed back into the original training context for 8 min, during which no foot shock was delivered. […] The animals' behavior was scored by an observer blind to the treatment conditions. Using a time-sampling procedure every 2 s, each mouse was scored blindly as either freezing or active at the instant the sample was taken. […]

A short description of data set [3]: Stability in simulated intestinal fluid. It counts as in vitro ADME. To be noted: one phase decay.
Excerpt: as §1
Simulated intestinal fluids. The first hurdle that a peptide faces upon oral delivery is the high salt and acidic environment of the stomach that can denature the therapeutic peptide as well as the action of pepsin. Enteric coating can overcome this first hurdle easily with currently available industrial processes. Thus, we assessed the stability of the lipidized peptides in simulated intestinal fluids from non-fasted animals i.e. soluble fraction of digestive enzymes present in the upper gastrointestinal (and the major absorptive site for peptides). This soluble fraction contains pancreatic proteases such as trypsin and chymotrypsin, carboxypeptidases and aminopeptidases able to hydrolyse peptides down to di- or tripeptides. […] However, permeability across the BBB needs to be taken into consideration.

Another data set is described as follows: Plasma stability (mouse). The format is in vitro ADME. The following applies: for half-life: mouse, plasma; for half-life / k: one phase decay.
Excerpt: as §1
(§3) Plasma stability. […] Based on the higher lipophilicity of myristoylated peptides, dodecanoyl peptides are expected to be less protein bound and a higher percentage of the peptide will be available for permeation across biological barriers such as the BBB (only free fraction is available for transport). Thus, Dodecanoyl-[…] is a likely candidate for further development.

A short description of data set [4]: Liver stability (liver homogenate). The format is in vitro ADME, mouse. The following applies: for half-life: mouse, liver homogenate.
Excerpt: as §1
Liver stability (mouse). Clearance of peptide therapeutics is highly dependent on the high metabolism occurring by liver enzymes able to degrade within minutes the total dose of peptide reaching the bloodstream after intravenous, other parenteral and non-invasive (oral and nasal routes). Peptides with good plasma and liver stability are more likely to remain in circulation and thus elicit higher levels if peptide is brain permeable across the BBB via invasive and non-invasive routes.

A short description of another data set: Plasma stability (human). It counts as in vitro ADME. To be noted: for k / half-life: human plasma, one phase decay; for half-life: human, plasma.
Excerpt: as §1, §3

A short description of data set [5]: Physicochemical properties (water solubility).
A short description of data set [6]: Self-assembly (Thioflavin T, critical aggregate concentration) and TEM. The format is physicochemical. The following applies: aqueous media, ThT. The source says:
Peptides were able to aggregate in aqueous media and interact with Thioflavin T (ThT). ThT can be immobilized in fibrils/aggregates resulting in an increase in fluorescence. Dodecanoyl-[…] and Myristoyl-[…] result in lower critical aggregate concentrations (CAC) that is ˜5-fold lower from their equivalent lipidized peptides with a threonine. […] CAC is ˜20-fold smaller for myristoylated peptides compared to dodecanoyl peptides. […] This conserved structure can explain the increased stability and likely the success in solubilizing/stabilizing the peptide aggregates in hydroxyl-b-propyl cyclodextrin.

For data set [7], the system named is in vitro 2D human BBB model (hCMEC/D3 and human astrocytes SC-1800). To be noted: brain permeable peptide, literature; cited from earlier work.
Setting [8] is: brain, one phase decay, read-out: t1/2 (h).
Setting [9] is: brain, one phase decay, read-out: t1/2 (min).
Where [10] appears, read: liver, one phase decay, read-out: t1/2 (h).
Where [11] appears, read: liver, one phase decay, read-out: t1/2 (min).

Protocol for hCMEC/D3 cells: Cell metabolic activity was calculated in Human cerebral microvascular endothelial cells (hCMEC/D3) after exposure to the peptides at various concentrations for 4 or 24 hours (n=3, FIG. 7).
At the specified time points, the MTT solution (20 μL at 5 mg mL^−1 solution in PBS) were added to each well and cells were incubated for 4 hours at 37° C. Subsequently, DMSO (100 μL) was added to dissolve the formazan crystals and absorbance was measured at 570 and 690 nm using Multiskan Go microplate spectrophotometer and data were analysed using the SkanIt software (Thermo Scientific, Paisley, UK). Cell metabolic activity was calculated by subtracting the values at 690 nm from 570 nm to remove background, and dividing the values by the control to express as a percentage (%) of the control (0.5% DMSO):

On to `CCCCCCCCCCCC(=O)N[C@@H](CCC(N)=O)C(=O)N[C@H](Cc1c[nH]cn1)C(=O)N[C@@H](CO)C(=O)N[C@H](CCC(N)=O)C(=O)NC(C(=O)N[C@@H](C(=O)N[C@@H](CCCCN)C(=O)N[C@@H](C(=O)O)C(C)C)C(C)O)[C@@H](C)CC` (stereo partly shown) (Lauroyl-Q[dH]S[dQ][ξIle][dThr(3ξ)]K[dV]-OH), for which the “brain stability (comparative)” value in data set [1] (brain (mouse)) is on record as “more brain stable”. Also, the k was 1.901 h⁻¹ in data set [1] (brain, one phase decay); 0.2337 h⁻¹ in data set [3]; 4.595 h⁻¹ in “Plasma stability (mouse)”; 1.146 h⁻¹ in data set [4] (liver, one phase decay); 0.2102 h⁻¹ in the data set “Plasma stability (human)”. The half-life in data set [1] (setting [8]) was 0.365 h; in data set [1] (setting [9]), 0.365 h; in data set [3] (read-out: t1/2 (h)), 2.97 h; in data set [3] (read-out: t1/2 (min)) it was 2.97 h; in the data set “Plasma stability (mouse)” (read-out: t1/2 (h)) it was 0.151 h; in “Plasma stability (mouse)” (read-out: t1/2 (min)), 0.151 h. Besides, the half-life came to 0.605 h in data set [4] (setting [10]), 0.605 h in [4] (setting [11]), 3.3 h in “Plasma stability (human)” (read-out: t1/2 (h)) and 3.3 h in the data set “Plasma stability (human)” (read-out: t1/2 (min)). Moreover, the Papp – broadly, the rate of passage across a membrane or cell layer, normalised by area and donor concentration – at 200 μM in “in vitro” was greater than 3.77 ×10⁻⁶ cm/s. The compound further had a Papp in “in vitro” of 5.57 ± 0.289 ×10⁻⁶ cm/s. Further, the “BBB permeability” value in data set [2] is recorded as “good”. Moreover, the “freezing behavior compared with the myristoyl peptide” value with APP/PS1 mice (FIG. 5) is on record as “more than the myristoyl peptide”. In the data set on APP/PS1 mice (fear conditioning test), the “increase in freezing compared to myristoyl-QHSQITKV” value was determined as 36%. Moreover, in the data set on APP/PS1 mice (i.c.v. infusion 3-4 weeks, vs vehicle, FIG. 4B), the “contextual fear conditioning performance (freezing behavior)” value is “improved the performance; also recorded: enhance freezing behavior”. Besides, the Cell viability entry in the data set with hCMEC/D3 cells is on record as “+++++”. The “cell viability” value in the data set on hCMEC/D3 cells is on record as “good”. Further, the “human plasma stability” value in the data set “Plasma stability (human)” is listed as “good”.

`CCCCCCCCCCCCCC(=O)N[C@@H](CCC(N)=O)C(=O)N[C@@H](Cc1c[nH]cn1)C(=O)N[C@@H](CO)C(=O)N[C@@H](CCC(N)=O)C(=O)N[C@H](C(=O)N[C@H](C(=O)N[C@@H](CCCCN)C(=O)N[C@H](C(=O)O)C(C)C)[C@@H](C)O)[C@@H](C)CC` (Myristoyl-QHSQITKV-OH; C-terminus assumed): the “brain stability (comparative)” value in [1] (brain (mouse)) is “more brain stable”. Moreover, the k was 2.714 h⁻¹ in data set [1] (brain, one phase decay); 0.1534 h⁻¹ in data set [3]; 0.7972 h⁻¹ in “Plasma stability (mouse)”; 0.5092 h⁻¹ in data set [4] (liver, one phase decay); 0.3116 h⁻¹ in the data set “Plasma stability (human)”. For the same compound, the half-life in data set [1] (brain (mouse), read-out: half-life (converted)) was 0.26 h; in [1] (setting [8]) it was 0.255 h; in data set [1] (setting [9]) it was 0.255 h; in data set [3] (read-out: t1/2 (h)) it was 4.52 h; in data set [3] (read-out: t1/2 (min)), 4.52 h; in the data set “Plasma stability (mouse)” (read-out: t1/2 (h)), 0.869 h. Also, the half-life in “Plasma stability (mouse)” (read-out: t1/2 (min)) was 0.869 h; in data set [4] (liver (mouse), read-out: half-life (converted)), 1.4 h; in data set [4] (setting [10]), 1.36 h; in data set [4] (setting [11]), 1.36 h; in “Plasma stability (human)” (read-out: t1/2 (h)) it was 2.22 h; in “Plasma stability (human)” (read-out: t1/2 (min)) it was 2.22 h. In addition, the “water solubility (comparative with threonine analogue)” value in data set [5] is recorded as “higher water solubility”. For the same compound, the “critical aggregate concentration (CAC), lower than equivalent lipidized peptide with a threonine” value in data set [6] is listed as roughly 5 fold. In addition, the apparent permeability coefficient (Papp) at 200 μM in “in vitro” was less than 3.77 ×10⁻⁶ cm/s. Besides, the Papp in the data set “in vitro” came to 2.63 ± 0.0786 ×10⁻⁶ cm/s. In data set [2], the “BBB permeability” value was “poor”. Further, the share remaining – broadly, what is left of the initial amount, in per cent – at 2 h in the data set “Plasma stability (mouse)” (after 2 hours of incubation, read-out: peptide remaining) is roughly 50%. Besides, the “stability in mouse plasma (comparative)” value in “Plasma stability (mouse)” (longer half-lives) is recorded as “more plasma stable”. Moreover, the Cell viability entry with hCMEC/D3 cells was “+”. The “recovery of cells at 24 hours” value with hCMEC/D3 cells is “did not recover”.

`CCCCCCCCCCCCCC(=O)N[C@@H](CCC(N)=O)C(=O)N[C@@H](Cc1c[nH]cn1)C(=O)N[C@H](C(=O)N[C@@H](CCC(N)=O)C(=O)N[C@H](C(=O)N[C@H](C(=O)N[C@@H](CCCCN)C(=O)N[C@H](C(=O)O)C(C)C)[C@@H](C)O)[C@@H](C)CC)[C@@H](C)O` (Myristoyl-QHTQITKV-OH; C-terminus assumed): the k in data set [1] (brain, one phase decay) was 4.204 h⁻¹; in [3] it was 0.2490 h⁻¹; in “Plasma stability (mouse)”, 6.172 h⁻¹; in data set [4] (liver, one phase decay), 0.03747 h⁻¹; in the data set “Plasma stability (human)” it was 1.604 h⁻¹. The half-life in data set [1] (setting [8]) stood at 0.165 h; in data set [1] (setting [9]), 0.165 h; in the data set “Plasma stability (mouse)” (read-out: t1/2 (h)), 0.112 h; in “Plasma stability (mouse)” (read-out: t1/2 (min)) it was 0.112 h; in data set [4] (setting [10]), 18.5 h; in data set [4] (setting [11]) it was 18.5 h. Further, the half-life in data set [4] (liver, two phase decay, fast, read-out: t1/2 (h) (fast) (converted)) was 0.227 h; in [4] (liver, two phase decay, fast, read-out: t1/2 (min) (fast)), 0.227 h; in data set [4] (liver, two phase decay, slow, read-out: t1/2 (h) (slow) (converted)), 1510 h; in data set [4] (liver, two phase decay, slow, read-out: t1/2 (min) (slow)), 1510 h; in the data set “Plasma stability (human)” (read-out: t1/2 (h)) it was 0.432 h; in the data set “Plasma stability (human)” (read-out: t1/2 (min)), 0.432 h. The “physicochemical properties for successful development” value in [5] was “poor”. This compound also gave a Papp at 200 μM in the data set “in vitro” of 2.63 to 5.57 ×10⁻⁶ cm/s. Also, the Papp in “in vitro” came out at 3.77 ± 0.386 ×10⁻⁶ cm/s. Further, the Cell viability entry in the data set on hCMEC/D3 cells is on record as “+++++”. The “k (fast)” value in data set [4] (liver, two phase decay, fast) was 3.051 (fast), h^−1. Also, the “k (slow)” value in data set [4] (liver, two phase decay, slow) stood at 0.00046 h⁻¹.

Take Angiopep-2: in data set [7], the “Papp, previous reported value” was 8.69±1.53 ×10^−6 cm/s.
